Laboratory results: ChEMBL document CHEMBL5233269, “Anticancer potential of spirocompounds in medicinal chemistry: A pentennial expedition” (Eur J Med Chem, 2021)
One block for each molecule: values may come before it.

Experiments:
[1] = Antiproliferative activity against human […] cells measured after 48 hrs by MTT assay; assay type: functional, cell-based
[2] = system: MCF7; assay: Antiproliferative activity against human MCF7 cells measured after 48 hrs by MTT assay; assay type: functional, cell-based; details: MCF7, 48 h
[3] = system: HeLa; assay: Antiproliferative activity against human HeLa cells measured after 48 hrs by MTT assay; assay type: functional, cell-based
[4] = system: HL-60; assay: Antiproliferative activity against human HL-60 cells measured after 48 hrs by MTT assay; assay type: functional, cell-based; details: HL-60, 48 h
[5] = system: SW480; assay: Antiproliferative activity against human SW480 cells measured after 48 hrs by MTT assay; assay type: functional, cell-based; details: SW480, 48 h
[6] = system: HepG2; assay: Antiproliferative activity against human HepG2 cells measured after 48 hrs by MTT assay; assay type: functional, cell-based; details: HepG2, 48 h
[7] = system: HT-29; assay: Antiproliferative activity against human HT-29 cells measured after 48 hrs by MTT assay; assay type: functional, cell-based; details: HT-29, 48 h
[8] = system: A549; assay: Antiproliferative activity against human A549 cells measured after 48 hrs by MTT assay; assay type: functional, cell-based; details: A549, 48 h
[9] = target: T1, Amine oxidase [flavin-containing] A (Rattus norvegicus, UniProt P21396); assay: Inhibition of rat brain MAO-A relative to control; assay type: tissue-based
T1 sequence (P21396 whole entry): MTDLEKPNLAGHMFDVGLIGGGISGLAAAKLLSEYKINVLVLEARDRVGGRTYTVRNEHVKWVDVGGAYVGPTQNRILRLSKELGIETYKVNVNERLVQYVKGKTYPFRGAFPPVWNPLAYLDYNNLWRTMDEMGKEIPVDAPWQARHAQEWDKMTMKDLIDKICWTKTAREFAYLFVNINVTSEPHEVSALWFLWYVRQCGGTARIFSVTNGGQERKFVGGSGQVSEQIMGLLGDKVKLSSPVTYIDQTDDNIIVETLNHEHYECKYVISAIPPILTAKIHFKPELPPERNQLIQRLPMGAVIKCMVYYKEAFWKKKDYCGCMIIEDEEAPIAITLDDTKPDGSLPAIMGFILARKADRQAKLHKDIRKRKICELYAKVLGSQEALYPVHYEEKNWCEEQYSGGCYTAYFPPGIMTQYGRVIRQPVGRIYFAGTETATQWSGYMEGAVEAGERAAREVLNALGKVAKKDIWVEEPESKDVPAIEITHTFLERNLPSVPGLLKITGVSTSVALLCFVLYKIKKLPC

[10] = system: Ehrlich; assay: Antitumor activity against mouse Ehrlich ascites carcinoma xenografted in mouse model assessed tumor growth inhibition relative to control; assay type: functional; parameters: scale not given: the % may be the effect or the level left
[11] = system: Sarcoma-180; assay: Antitumor activity against mouse Sarcoma-180 xenografted in mouse model assessed tumor growth inhibition relative to control; assay type: functional; parameters: scale not given: the % may be the effect or the level left
[12] = system: A549; assay: Anticancer activity against human A549 cells assessed as inhibition of cell growth by MTT assay; assay type: functional, cell-based
[13] = system: MCF7; assay: Anticancer activity against human MCF7 cells assessed as inhibition of cell growth by MTT assay; assay type: functional, cell-based
[14] = system: HeLa; assay: Anticancer activity against human HeLa cells assessed as inhibition of cell growth by MTT assay; assay type: functional, cell-based
[15] = system: HepG2; assay: Antiproliferative activity against human HepG2 cells by MTT assay; assay type: functional, cell-based
[16] = system: L02; assay: Antiproliferative activity against human L02 cells by MTT assay; assay type: functional, cell-based
[17] = system: MCF7; assay: Anticancer activity against human MCF7 cells at 10 uM by MTT assay relative to control; assay type: functional
[18] = system: HepG2; assay: Anticancer activity against human HepG2 cells at 200 microg/ml measured after 48 hrs relative to control; assay type: functional
[19] = system: 4T1; assay: Anticancer activity against mouse 4T1 cells at 200 microg/ml measured after 48 hrs relative to control; assay type: functional
[20] = system: HepG2; assay: Cytotoxicity against human HepG2 cells incubated overnight by MTT assay; assay type: functional, cell-based
[21] = system: HCT-116; assay: Cytotoxicity against human HCT-116 cells incubated overnight by MTT assay; assay type: functional, cell-based
[22] = system: MCF7; assay: Antiproliferative activity against human MCF7 cells assessed as inhibition of cell viability; assay type: functional, cell-based
[23] = system: K562; assay: Antiproliferative activity against human K562 cells assessed as inhibition of cell viability; assay type: functional, cell-based
[24] = system: LNCaP; assay: Anticancer activity against human LNCaP cells measured after 48 hrs by MTT assay; assay type: functional, cell-based
[25] = system: DU-145; assay: Anticancer activity against human DU-145 cells measured after 48 hrs by MTT assay; assay type: functional, cell-based; details: DU-145, 48 h
[26] = system: Ishikawa; assay: Anticancer activity against human Ishikawa cells measured after 48 hrs by MTT assay; assay type: functional, cell-based
[27] = system: MCF7; assay: Anticancer activity against human MCF7 cells measured after 48 hrs by MTT assay; assay type: functional, cell-based; details: MCF7, 48 h
[28] = system: MDA-MB-231; assay: Anticancer activity against human MDA-MB-231 cells measured after 48 hrs by MTT assay; assay type: functional, cell-based; details: MDA-MB-231, 48 h
[29] = system: A-431; assay: Anticancer activity against human A-431 cells; assay type: functional, cell-based
[30] = system: MCF7; assay: Anticancer activity against human MCF7 cells assessed as reduction of cell growth; assay type: functional, cell-based
[31] = system: PC-3; assay: Anticancer activity against human PC-3 cells assessed as reduction of cell growth; assay type: functional, cell-based
[32] = Anticancer activity against human MCF-10A cells assessed as reduction of cell growth; assay type: toxicity, cell-based
[33] = system: HeLa; assay: Cytotoxicity against human HeLa cells incubated for 24 hrs by MTT assay; assay type: functional, cell-based
[34] = system: HeLa; assay: Cytotoxicity against human HeLa cells incubated for 48 hrs by MTT assay; assay type: functional, cell-based

Compound: CC(C)CCC[C@@H](C)[C@@H]1CCC2C3C[C@@]4(N=C5C=CC=CN5/C4=N\c4ccccc4)C4C[C@@H](Cl)CC[C@]4(C)C3CC[C@@]21C (some centres undefined)
IC50 [1]: 3.17 µM
IC50 [2]: 3.93 µM
IC50 [3]: 5.41 µM
IC50 [4]: 2.62 µM
IC50 [5]: 3.42 µM
IC50 [6]: 5.32 µM
IC50 [7]: 2.18 µM
IC50 [8]: 3.09 µM

Compound: CC(C)CCC[C@@H](C)[C@@H]1CCC2C3C[C@@]4(N=C5C=CC(Cl)=CN5/C4=N\Cc4ccccc4)C4C[C@@H](Cl)CC[C@]4(C)C3CC[C@@]21C (some centres undefined)
IC50 [1]: 4.67 µM
IC50 [2]: 3.24 µM
IC50 [3]: 5.23 µM
IC50 [4]: 5.17 µM
IC50 [5]: 2.33 µM
IC50 [6]: 5.37 µM
IC50 [7]: 4.63 µM
IC50 [8]: 3.43 µM

Compound: CCOC(=O)c1[nH]nc2c1C1(C(=O)N(C(C)=O)c3ccccc31)C(C#N)=C(N)O2 (centres undefined)
inhibition at 10 µM [17]: 15.7%

Compound: Cc1ccc2c(c1)[C@]1(C(=O)N2)[C@@H](C(=O)c2ccccc2)[C@]2(C(=O)Nc3ccccc32)[C@@H]2c3ccccc3CCN21
inhibition at 200 µg/mL [18]: 66.7%
inhibition at 200 µg/mL [19]: 20.8%

Compound: O=C(/C=C/c1cccc(Br)c1)[C@H]1[C@H](c2cccc(Br)c2)C2CSCN2[C@]12C(=O)Nc1cc(Br)c(Br)cc12 (some centres undefined)
IC50 [20]: 0.9 µM
IC50 [21]: 1.57 µM

Compound: O=C(/C=C/c1ccc(Br)cc1)[C@H]1[C@H](c2ccc(Br)cc2)C2CSCN2[C@]12C(=O)Nc1ccccc12 (some centres undefined)
IC50 [20]: 0.8 µM
IC50 [21]: 3 µM

Compound: O=C1NC2(C3=C(C(=O)C4C=CC=CC4C3=O)c3ccccc32)c2ccccc21 (centres undefined)
IC50 [24]: 0.67 µM
IC50 [25]: 2.18 µM
IC50 [26]: 1.9 µM
IC50 [27]: 0.82 µM
IC50 [28]: 6.88 µM

Compound: COc1ccc(C(=O)[C@H]2[C@]3(C(=O)Nc4ccc(Cl)cc43)[C@@H]3c4ccccc4CCN3[C@@]23C(=O)Nc2ccc(Cl)cc23)cc1
inhibition at 200 µg/mL [18]: 70.1%
inhibition at 200 µg/mL [19]: 23.2%

Compound: Cc1cn(CN2C(=O)C3(c4ccccc42)C(C(=O)c2ccccc2)C3C(=O)c2ccc(Cl)cc2)nn1 (centres undefined)
IC50 [33]: 9.3 µM
IC50 [34]: 4.5 µM

Compound: O=C1NC2(C3=C(C(=O)C4C=CC=CC4C3=O)c3cc(Cl)ccc32)c2ccccc21 (centres undefined)
IC50 [24]: 5.34 µM
IC50 [25]: 1.68 µM
IC50 [26]: 1.39 µM
IC50 [27]: 5.11 µM
IC50 [28]: 17.6 µM

Compound: O=C1Nc2ccc(Br)cc2C12c1c([nH]c(=O)[nH]c1=O)N(c1ccc(N3CCOCC3)c(F)c1)c1[nH]c(=O)[nH]c(=O)c12
IC50 [12]: 25.6 µM
IC50 [13]: 23 µM
IC50 [14]: 6.81 µM

More lines, main results first:

inhibition (INH) [9]: 32%
Compound: CCn1c(SCC(=O)Nc2ccccc2)nc2c(c1=O)C1(CCCCC1)Cc1ccccc1-2
Activity [10]: 75%
Activity [11]: 55%

IC50 [12]: 22.2 µM
IC50 [13]: 9.56 µM
IC50 [14]: 18.1 µM
Compound: O=C1Nc2ccc(Br)cc2C12c1c(c3ccccc3oc1=O)N(c1ccc(N3CCOCC3)c(F)c1)c1c2c(=O)oc2ccccc12

IC50 [15]: 2.86 µM
Compound: O=C1C(=O)C2C(N=C3N=NNN3C23C(=O)Nc2ccc(F)cc23)c2ccccc21 (centres undefined)
IC50 [16]: 58.9 µM

inhibition (INH) [9]: 50%
Compound: CCn1c(SCc2ccc(Cl)cc2)nc2c(c1=O)C1(CCCCC1)Cc1ccccc1-2
Activity [10]: 56%
Activity [11]: 40%

inhibition (INH) [9]: 15%
Compound: CCn1c(SCC(=O)Nc2cccc(C(F)(F)F)c2)nc2c(c1=O)C1(CCCCC1)Cc1ccccc1-2
Activity [10]: 70%
Activity [11]: 42%

IC50 [22]: 15.5 µM
IC50 [23]: 15.8 µM
Compound: O=C1/C(=C/c2ccc(Br)cc2)CCCC12[C@@H]1CCCN1[C@@]1(C(=O)Nc3ccccc31)[C@H]2c1ccc(Br)cc1 (some centres undefined)

IC50 [29]: 55.6 µM
IC50 [30]: 9.62 µM
IC50 [31]: 86.1 µM
Compound: COc1cccc(N2C(=O)C3(c4ccccc4NC4C(=O)CC(C)(C)CC43)C3C(=O)CC(C)(C)CC32)c1 (centres undefined)
IC50 [32]: 48.1 µM

IC50 [29]: 42.4 µM
IC50 [30]: 9.88 µM
IC50 [31]: 73.1 µM
Compound: CC1(C)CC(=O)C2C(C1)N(c1ccccn1)C(=O)C21c2ccccc2NC2C(=O)CC(C)(C)CC21 (centres undefined)
IC50 [32]: 34.6 µM
